# Experimental data published in patent publication US20220380383A1, “NEUROPROTECTIVE PDI MODULATING SMALL MOLECULES AND METHODS OF USE THEREOF” (THE TRUSTEES OF COLUMBIA UNIVERSITY IN THE CITY OF NEW YORK, priority 2018, published 2022).
# Legend:
# [1] = biological target: T1, human catalytic PDI A1 a domain (PDIa) (Homo sapiens, UniProt P07237); assay: Isothermal titration calorimetry (ITC) binding to PDIa
# T1 construct: made in house; host or cells: Escherichia coli BL21-Gold (DE3)
# [2] = biological target: T2, HTR3A (Homo sapiens, UniProt P46098); assay: Safety47 panel ion channel HTR3A; assay type: cell-based; conditions: 3 μM
# T2 construct: CEREP (CRO panel)
# T2 sequence (P46098 24-478): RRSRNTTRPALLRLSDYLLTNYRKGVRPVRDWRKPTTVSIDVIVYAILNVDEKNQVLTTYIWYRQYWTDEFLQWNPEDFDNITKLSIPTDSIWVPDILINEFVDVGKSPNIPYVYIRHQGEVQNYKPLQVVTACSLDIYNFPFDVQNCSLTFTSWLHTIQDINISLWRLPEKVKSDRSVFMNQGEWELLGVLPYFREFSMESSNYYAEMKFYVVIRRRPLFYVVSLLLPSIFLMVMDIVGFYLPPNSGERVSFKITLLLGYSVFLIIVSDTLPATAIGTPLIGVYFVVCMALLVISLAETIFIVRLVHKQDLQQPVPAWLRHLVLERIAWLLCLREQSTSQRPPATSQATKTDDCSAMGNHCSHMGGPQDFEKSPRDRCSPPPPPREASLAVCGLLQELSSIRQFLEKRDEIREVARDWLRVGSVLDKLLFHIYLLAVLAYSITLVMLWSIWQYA
# Excerpt: (§1) LOC14 was also submitted for testing in CEREP's Safety47 panel. CEREP is a CRO specializing in preclinical research, discovery and development of new pharmaceutical drugs.
# [3] = biological target: T3, hERG (Homo sapiens, UniProt Q12809); assay: Safety47 panel ion channel hERG; assay type: cell-based; conditions: Blocker mode; 3 μM
# T3 construct: CEREP (CRO panel)
# Excerpt: as §1
# [4] = biological target: Sigma σ1 (Homo sapiens, UniProt Q99720); assay: Off-target panel, Sigma σ1; assay type: binding; conditions: Conc. 3 μM
# [5] = biological target: T4, ADORA2A (Homo sapiens, UniProt P29274); assay: Safety47 panel GPCR ADORA2A; assay type: cell-based; conditions: 3 μM
# T4 construct: CEREP (CRO that ran the panel)
# T4 sequence (P29274 whole entry): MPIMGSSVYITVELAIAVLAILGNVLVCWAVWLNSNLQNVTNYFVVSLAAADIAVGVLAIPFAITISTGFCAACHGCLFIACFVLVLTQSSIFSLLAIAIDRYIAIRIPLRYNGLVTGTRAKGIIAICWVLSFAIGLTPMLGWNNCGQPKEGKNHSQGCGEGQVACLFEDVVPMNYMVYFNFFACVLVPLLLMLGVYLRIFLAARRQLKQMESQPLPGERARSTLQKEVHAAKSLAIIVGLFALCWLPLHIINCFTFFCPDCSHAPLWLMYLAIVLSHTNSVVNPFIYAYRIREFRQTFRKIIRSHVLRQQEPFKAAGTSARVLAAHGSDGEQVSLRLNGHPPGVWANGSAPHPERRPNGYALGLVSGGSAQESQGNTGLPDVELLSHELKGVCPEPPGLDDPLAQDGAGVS
# Excerpt: as §1
# [6] = biological target: Adenosine A2A (Homo sapiens, UniProt P29274); assay: Off-target panel, Adenosine A2A; assay type: binding; conditions: Conc. 3 μM
# Adenosine A2A, sequence (P29274 whole entry): as above
# [7] = biological target: T5, DAT (Homo sapiens, UniProt Q01959); assay: Safety47 panel transporter DAT; assay type: cell-based; conditions: Blocker mode; 3 μM
# T5 construct: CEREP (CRO panel)
# Excerpt: as §1
# [8] = biological target: T6, NMDAR (1A/2B) (Homo sapiens, UniProt Q05586+Q13224); assay: Safety47 panel ion channel NMDAR (1A/2B); assay type: cell-based; conditions: 3 μM
# T6 construct: CEREP (CRO panel)
# T6 sequence (Q13224 27-1484, other chains not shown): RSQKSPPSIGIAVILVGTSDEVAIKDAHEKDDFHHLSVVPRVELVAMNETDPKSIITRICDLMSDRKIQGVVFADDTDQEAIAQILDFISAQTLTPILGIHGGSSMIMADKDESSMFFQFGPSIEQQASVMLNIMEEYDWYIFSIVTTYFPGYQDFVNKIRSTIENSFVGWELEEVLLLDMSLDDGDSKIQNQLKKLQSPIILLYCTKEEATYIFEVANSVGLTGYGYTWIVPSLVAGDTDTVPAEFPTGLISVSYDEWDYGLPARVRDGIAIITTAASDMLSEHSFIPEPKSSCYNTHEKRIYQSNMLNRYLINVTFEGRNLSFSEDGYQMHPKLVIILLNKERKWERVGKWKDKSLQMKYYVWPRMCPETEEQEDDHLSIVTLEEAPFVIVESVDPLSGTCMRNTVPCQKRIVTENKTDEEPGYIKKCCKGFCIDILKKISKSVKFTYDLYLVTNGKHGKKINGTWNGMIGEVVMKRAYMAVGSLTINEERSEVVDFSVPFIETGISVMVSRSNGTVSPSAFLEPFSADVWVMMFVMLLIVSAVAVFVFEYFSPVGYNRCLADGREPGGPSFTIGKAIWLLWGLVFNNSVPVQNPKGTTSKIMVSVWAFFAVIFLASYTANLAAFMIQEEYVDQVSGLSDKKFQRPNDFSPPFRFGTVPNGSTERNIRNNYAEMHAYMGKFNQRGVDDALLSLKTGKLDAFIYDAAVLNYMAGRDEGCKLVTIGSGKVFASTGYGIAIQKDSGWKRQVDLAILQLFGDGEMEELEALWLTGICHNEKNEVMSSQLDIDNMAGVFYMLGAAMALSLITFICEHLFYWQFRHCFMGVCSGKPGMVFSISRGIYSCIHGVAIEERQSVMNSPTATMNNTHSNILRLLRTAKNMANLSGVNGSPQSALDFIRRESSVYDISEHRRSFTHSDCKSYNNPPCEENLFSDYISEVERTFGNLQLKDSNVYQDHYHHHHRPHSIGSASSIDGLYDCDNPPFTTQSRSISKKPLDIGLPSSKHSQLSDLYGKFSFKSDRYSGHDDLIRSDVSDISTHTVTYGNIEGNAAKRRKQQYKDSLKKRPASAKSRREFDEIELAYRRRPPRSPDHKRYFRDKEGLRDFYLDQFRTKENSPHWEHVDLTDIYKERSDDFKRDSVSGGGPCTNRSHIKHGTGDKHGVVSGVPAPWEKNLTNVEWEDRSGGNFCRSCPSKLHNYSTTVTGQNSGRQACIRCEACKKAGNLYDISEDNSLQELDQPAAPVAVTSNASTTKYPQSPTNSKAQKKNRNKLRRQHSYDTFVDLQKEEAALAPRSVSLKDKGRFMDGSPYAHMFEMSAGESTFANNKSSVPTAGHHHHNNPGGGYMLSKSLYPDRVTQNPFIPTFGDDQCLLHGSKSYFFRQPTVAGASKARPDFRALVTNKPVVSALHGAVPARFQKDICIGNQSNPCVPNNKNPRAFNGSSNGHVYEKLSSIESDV
# Excerpt: as §1
# [9] = biological target: Adrenergic α2A (Homo sapiens, UniProt P08913); assay: Off-target panel, Adrenergic α2A; assay type: binding; conditions: Conc. 3 μM
# Adrenergic α2A, sequence (P08913 whole entry): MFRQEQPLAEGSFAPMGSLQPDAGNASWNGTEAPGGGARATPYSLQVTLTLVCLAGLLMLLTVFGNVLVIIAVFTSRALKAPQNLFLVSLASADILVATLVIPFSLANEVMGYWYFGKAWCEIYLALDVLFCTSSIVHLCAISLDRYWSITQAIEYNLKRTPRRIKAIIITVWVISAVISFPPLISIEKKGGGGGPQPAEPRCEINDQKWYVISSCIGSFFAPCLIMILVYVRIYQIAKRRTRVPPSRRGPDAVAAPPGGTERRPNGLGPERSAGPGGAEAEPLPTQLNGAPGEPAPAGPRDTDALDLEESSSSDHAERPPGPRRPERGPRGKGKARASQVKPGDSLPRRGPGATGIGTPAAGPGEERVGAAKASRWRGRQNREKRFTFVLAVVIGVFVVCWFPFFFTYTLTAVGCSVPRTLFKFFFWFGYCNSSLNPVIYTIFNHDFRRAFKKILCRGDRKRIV
# [10] = biological target: T7, KvLQT1/minK (Homo sapiens, UniProt P51787); assay: Safety47 panel ion channel KvLQT1/minK; assay type: cell-based; conditions: 3 μM
# T7 construct: CEREP (CRO panel)
# Excerpt: as §1
# [11] = biological target: T8, AChE (Homo sapiens, UniProt P22303); assay: Safety47 panel non-kinase enzyme AChE; assay type: biochemical; conditions: Inhibitor mode; 3 μM
# T8 construct: CEREP (CRO panel)
# T8 sequence (P22303 32-614): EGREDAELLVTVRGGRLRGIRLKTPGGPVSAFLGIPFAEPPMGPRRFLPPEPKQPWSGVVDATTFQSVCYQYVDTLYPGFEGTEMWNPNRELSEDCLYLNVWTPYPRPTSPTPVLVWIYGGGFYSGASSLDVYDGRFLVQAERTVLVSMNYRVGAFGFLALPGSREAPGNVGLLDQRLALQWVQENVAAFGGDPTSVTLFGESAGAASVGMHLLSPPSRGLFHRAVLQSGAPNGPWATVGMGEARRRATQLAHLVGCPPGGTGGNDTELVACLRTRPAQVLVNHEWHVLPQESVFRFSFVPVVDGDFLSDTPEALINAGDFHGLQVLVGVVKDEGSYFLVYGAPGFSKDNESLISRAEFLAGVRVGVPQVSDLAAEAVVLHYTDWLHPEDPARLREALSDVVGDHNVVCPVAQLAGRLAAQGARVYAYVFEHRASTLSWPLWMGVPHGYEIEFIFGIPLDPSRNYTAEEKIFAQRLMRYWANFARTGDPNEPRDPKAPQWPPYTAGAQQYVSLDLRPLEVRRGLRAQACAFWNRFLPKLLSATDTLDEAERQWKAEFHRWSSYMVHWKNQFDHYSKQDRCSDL
# Excerpt: as §1
# [12] = biological target: Adenosine A1 (Homo sapiens, UniProt P30542); assay: Off-target panel, Adenosine A1; assay type: binding; conditions: Conc. 3 μM
# [13] = biological target: T9, CAV1.2 (Homo sapiens, UniProt Q13936); assay: Safety47 panel ion channel CAV1.2; assay type: cell-based; conditions: Blocker mode; 3 μM
# T9 construct: CEREP (CRO panel)
# Excerpt: as §1
# [14] = biological target: Histamine H1 (Homo sapiens, UniProt P35367); assay: Off-target panel, Histamine H1; assay type: binding; conditions: Conc. 3 μM
# [15] = biological target: Opiate (OP3, MOP) (Homo sapiens, UniProt P35372); assay: Off-target panel, Opiate; assay type: binding; conditions: Conc. 3 μM
# Opiate (OP3, MOP), sequence (P35372 whole entry): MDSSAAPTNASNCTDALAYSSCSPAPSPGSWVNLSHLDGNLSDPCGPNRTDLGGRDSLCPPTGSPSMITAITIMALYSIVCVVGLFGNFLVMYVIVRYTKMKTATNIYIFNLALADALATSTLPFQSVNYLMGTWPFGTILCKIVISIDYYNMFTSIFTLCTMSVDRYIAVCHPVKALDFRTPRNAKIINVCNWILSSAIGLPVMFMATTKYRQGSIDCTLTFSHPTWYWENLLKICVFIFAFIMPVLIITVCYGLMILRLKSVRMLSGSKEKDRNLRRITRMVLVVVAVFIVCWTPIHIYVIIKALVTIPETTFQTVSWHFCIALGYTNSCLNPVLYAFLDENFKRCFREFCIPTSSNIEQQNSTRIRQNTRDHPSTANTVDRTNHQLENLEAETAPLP
# [16] = system: parental ST14A cells; assay: Rescue of parental ST14A cells (39° C., serum starved, CellTiter-Glo); assay type: cell-based, rat; conditions: 48 hours
# Excerpt: Having elucidated the molecular mechanism of LOC14's binding to PDI, we next tested whether PDI modulation with LOC14 would be effective in neurodegenerative disease models. First, we evaluated LOC14's neuroprotection in rat neuron-like PC12 cells stably transfected with an inducible plasmid for truncated mutant huntingtin protein (mHTT^Q103). […] We next evaluated the activity of LOC14 in cells that more closely represent the medium-size spiny neurons affected in Huntington Disease patients. We used rat embryonic day 14 striatal neuronal cells (ST14A) immortalized by transduction of temperature-sensitive SV40 large T antigen (Cattaneo and Conti, 1998; Ehrlich et al. 2001; Rigamonti et al. 2000). Under serum deprivation and at 39° C., where large T antigen is degraded, ST14A cells undergo cell death within 48-72 hours. This death was rescued by treatment with LOC14 (FIG. 13B).
# [17] = biological target: T10, nAChR(a4/b2) (Homo sapiens, UniProt P17787+P43681); assay: Safety47 panel ion channel nAChR(a4/b2); assay type: cell-based; conditions: 3 μM
# T10 construct: CEREP (CRO panel)
# T10 sequence (P43681 29-627 limits assumed): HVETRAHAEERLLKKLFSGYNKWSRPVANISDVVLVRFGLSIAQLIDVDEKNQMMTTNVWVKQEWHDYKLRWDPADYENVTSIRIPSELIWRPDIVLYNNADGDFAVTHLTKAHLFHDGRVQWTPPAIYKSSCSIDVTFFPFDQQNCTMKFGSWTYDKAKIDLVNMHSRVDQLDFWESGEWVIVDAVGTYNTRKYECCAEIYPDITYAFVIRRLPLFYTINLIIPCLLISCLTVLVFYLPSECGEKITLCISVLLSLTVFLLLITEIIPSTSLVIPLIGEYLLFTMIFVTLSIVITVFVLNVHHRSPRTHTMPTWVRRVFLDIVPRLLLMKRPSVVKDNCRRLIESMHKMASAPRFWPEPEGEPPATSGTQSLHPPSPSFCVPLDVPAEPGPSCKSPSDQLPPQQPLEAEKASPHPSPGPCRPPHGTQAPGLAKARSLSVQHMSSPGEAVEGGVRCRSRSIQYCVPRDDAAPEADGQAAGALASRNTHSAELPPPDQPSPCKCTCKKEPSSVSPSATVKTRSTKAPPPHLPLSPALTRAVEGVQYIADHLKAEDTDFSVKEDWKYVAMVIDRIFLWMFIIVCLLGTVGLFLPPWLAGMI
# T10 sequence (P17787 26-502): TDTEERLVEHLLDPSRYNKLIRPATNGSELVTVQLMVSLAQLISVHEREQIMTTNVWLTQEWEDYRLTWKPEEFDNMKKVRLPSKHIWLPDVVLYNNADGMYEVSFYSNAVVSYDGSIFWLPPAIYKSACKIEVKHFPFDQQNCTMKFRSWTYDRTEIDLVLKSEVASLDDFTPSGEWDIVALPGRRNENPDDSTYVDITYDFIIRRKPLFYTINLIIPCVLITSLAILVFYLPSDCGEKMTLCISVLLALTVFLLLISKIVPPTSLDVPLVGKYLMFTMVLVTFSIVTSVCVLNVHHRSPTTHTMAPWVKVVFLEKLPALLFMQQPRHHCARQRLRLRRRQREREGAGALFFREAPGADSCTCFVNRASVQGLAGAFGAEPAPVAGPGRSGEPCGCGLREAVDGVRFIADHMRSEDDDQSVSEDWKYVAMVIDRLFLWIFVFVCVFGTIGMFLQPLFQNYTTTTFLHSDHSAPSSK
# Excerpt: as §1
# T1 sequence (P07237 18-134): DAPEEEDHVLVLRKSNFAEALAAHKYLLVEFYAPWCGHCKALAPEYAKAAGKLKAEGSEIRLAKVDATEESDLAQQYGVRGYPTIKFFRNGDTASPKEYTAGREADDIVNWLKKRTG
compound,measurement,setting,value
O=C(C1CC1)N1CCN(Cn2sc3c(F)cccc3c2=O)CC1 [LC-43],binding to PDI by ITC,[1],showed no binding to the protein by ITC
same,ITC KD,[1]; N/A = not active,KD = N/A irreversible or not active
O=C(C1CC1)N1CCN(Cn2sc3ccccc3c2=O)CC1 [LOC14],Average,[2]; Blocker mode,0.0
same,Average,[2]; Opener mode,2.5
same,Average,[3],5.9
same,inhibition at 3 µM,[4],-8%
same,Average % Response,[5]; Agonist mode,2.6%
same,Average % Response,[5]; Antagonist mode,2.4%
same,inhibition at 3 µM,[6],-4%
same,Average,[7],0.0
same,Average,[8]; Blocker mode,0.0
same,Average,[8]; Opener mode,1.7
same,inhibition at 3 µM,[9],7%
same,Average,[10]; Blocker mode,0.0
same,Average,[10]; Opener mode,9.8
same,Average,[11],2.8
same,inhibition at 3 µM,[12],8%
same,Average,[13],1.2
same,inhibition at 3 µM,[14],27%
same,inhibition at 3 µM,[15],-1%
same,EC100,[16],24 nM
same,Average,[17]; Blocker mode,10.1
same,Average,[17]; Opener mode,0.0
